Laboratory results as given in patent US20260000656A1, “ANTIFUNGAL AGENTS WITH ENHANCED ACTIVITY IN ACIDIC PH” (Scynexis, Inc., priority 2017, published 2026).
In brackets after ≈: the same amount, converted by molar mass. Read-outs that look alike come from different tables or passages of the source. Numbered stars: 1 amine (or outer) side, 2 acyl side, 3 side chain; on linkers, the order of the positions; unused ones are H or OH. Bridge positions count the residues as written; N and C are the ends. Square brackets hold non-standard residues; d marks the D form. Peptide text beside a SMILES is read from it. * marks the point of attachment. hTyr(3S-OH,4S-OH,3'-OSO3H) = N[C@H](C(=O)O)[C@H](O)[C@@H](O)c1ccc(O)c(OS(=O)(=O)O)c1; Orn(4R-OH,5R-OH) = O=C([C@H](C[C@@H](O)[C@@H](O)N[*:3])N[*:1])[*:2]; Pro(3S-OH,4S-Me) = C[C@H]1CN[C@H](C(=O)O)[C@H]1O; X1 = CCCCCOc1ccc(-c2cc(-c3ccc(C(=O)*)cc3)no2)cc1; Gln(3R-OH) = NC(=O)C[C@@H](O)[C@H](N)C(=O)O; Hyp = O=C(O)[C@@H]1C[C@@H](O)CN1

System: C. albicans isolates
Test: Broth microdilution susceptibility (CLSI M27-A3) at different medium pH
Type: cell-based, Candida albicans
Conditions: for MIC range: 50% inhibition, 10 vaginal isolates; for MIC50 / MIC90 / MIC: Candida albicans, 24 h
Procedure: Ten strains each of C. glabrata and C. albicans vaginal isolates were tested. The strains were obtained from recent clinical trial patients with vulvovaginal candidiasis (VVC) prior to treatment. Candida strains were obtained from the Mycology Reference Library (MRL) at Case Western Reserve University School of Medicine, Ohio, United States.
Susceptibility testing was performed using a broth microdilution method, according to CLSI M27-A3 guidelines (CLSI. 2008. Reference Method for Broth Dilution Antifungal Susceptibility Testing of Yeasts; Approved Standard—Third Edition. Clinical and Laboratory Standards Institute, CLSI document M27-A3). Antifungals and concentrations tested were SCY-078 and micafungin (both at concentrations within the range of 0.015 to 8 μg/ml) and fluconazole (at concentrations within the range of 0.125 to 64 μg/ml). A 0.1-ml C. albicans and C. glabrata inoculum of 0.5-2.5×10^3 blastospores/ml in RPMI 1640 medium was added to each microdilution well. ATCC strains of Candida parapsilosis and Candida krusei QC isolates were also included concurrently to ensure quality control. Antifungal susceptibility testing was carried out for each isolate in RPMI 1640 at pH 7 (to mimic RPMI medium used in testing the susceptibility of yeast by the CLSI M-27A3 document), pH 5.7, and pH 4.5 (to mimic the pH of the vaginal cavity) by adjusting the pH of the media using NaOH or HCl. […] Agents Chemother., 43: 1383-1386 (1999).
[…] SCY-078 powder was manufactured by Avista, Laboratories, NC. Micafungin and fluconazole were sourced from LGM Pharma.

In the case of `CCCCCOc1ccc(-c2cc(-c3ccc(C(=O)N[C@H]4C[C@@H](O)[C@@H](O)NC(=O)[C@@H]5[C@@H](O)[C@@H](C)CN5C(=O)[C@H]([C@H](O)CC(N)=O)NC(=O)[C@H]([C@H](O)[C@@H](O)c5ccc(O)c(OS(=O)(=O)O)c5)NC(=O)[C@@H]5C[C@@H](O)CN5C(=O)[C@H]([C@@H](C)O)NC4=O)cc3)no2)cc1` [Micafungin, reference compound] (X1-[Orn(4R-OH,5R-OH)]T[Hyp][hTyr(3S-OH,4S-OH,3'-OSO3H)][Gln(3R-OH)][Pro(3S-OH,4S-Me)]; lactam 1-C), the MIC range (pH 4.5, 24 h) is reported as 0.25 to 0.5 µg/mL, the MIC range (pH 5.72, 24 h) is reported as 0.063 to 1 µg/mL and the MIC range (pH 7.0, 24 h) is reported as 0.25 µg/mL (≈ 0.197 µM). For the same compound, the MIC50 (pH 4.5) was 0.5 µg/mL (≈ 0.394 µM), the MIC90 (pH 4.5) was 0.5 µg/mL (≈ 0.394 µM) and the MIC (pH 4.5, read-out: MIC (50% inhibition), C. albicans MRL 34366, pH 4.5, 24 hours) was 0.5 µg/mL (≈ 0.394 µM). It also gave an MIC (pH 4.5, read-out: MIC (50% inhibition), C. albicans MRL 34367, pH 4.5, 24 hours) of 0.5 µg/mL (≈ 0.394 µM), an MIC (pH 4.5, read-out: MIC (50% inhibition), C. albicans MRL 34372, pH 4.5, 24 hours) of 0.5 µg/mL (≈ 0.394 µM) and an MIC (pH 4.5, read-out: MIC (50% inhibition), C. albicans MRL 34373, pH 4.5, 24 hours) of 0.5 µg/mL (≈ 0.394 µM). For the same compound, the MIC (pH 4.5, read-out: MIC (50% inhibition), C. albicans MRL 34374, pH 4.5, 24 hours) was 0.5 µg/mL (≈ 0.394 µM), the MIC (pH 4.5, read-out: MIC (50% inhibition), C. albicans MRL 34385, pH 4.5, 24 hours) was 0.5 µg/mL (≈ 0.394 µM) and the MIC (pH 4.5, read-out: MIC (50% inhibition), C. albicans MRL 34389, pH 4.5, 24 hours) was 0.5 µg/mL (≈ 0.394 µM). For the same compound, the MIC (pH 4.5, read-out: MIC (50% inhibition), C. albicans MRL 34399, pH 4.5, 24 hours) was 0.5 µg/mL (≈ 0.394 µM), the MIC (pH 4.5, read-out: MIC (50% inhibition), C. albicans MRL 34408, pH 4.5, 24 hours) was 0.25 µg/mL (≈ 0.197 µM) and the MIC (pH 4.5, read-out: MIC (50% inhibition), C. albicans MRL 34449, pH 4.5, 24 hours) was 0.5 µg/mL (≈ 0.394 µM). For the same compound, the MIC50 (pH 5.72) was 1 µg/mL (≈ 0.787 µM), the MIC90 (pH 5.72) was 1 µg/mL (≈ 0.787 µM) and the MIC (pH 5.72, read-out: MIC (50% inhibition), C. albicans MRL 34366, pH 5.72, 24 hours) was 0.5 µg/mL (≈ 0.394 µM). The MIC (pH 5.72, read-out: MIC (50% inhibition), C. albicans MRL 34367, pH 5.72, 24 hours) was 0.5 µg/mL (≈ 0.394 µM), the MIC (pH 5.72, read-out: MIC (50% inhibition), C. albicans MRL 34372, pH 5.72, 24 hours) was 1 µg/mL (≈ 0.787 µM) and the MIC (pH 5.72, read-out: MIC (50% inhibition), C. albicans MRL 34373, pH 5.72, 24 hours) was 1 µg/mL (≈ 0.787 µM). The MIC (pH 5.72, read-out: MIC (50% inhibition), C. albicans MRL 34374, pH 5.72, 24 hours) was 1 µg/mL (≈ 0.787 µM), the MIC (pH 5.72, read-out: MIC (50% inhibition), C. albicans MRL 34385, pH 5.72, 24 hours) was 1 µg/mL (≈ 0.787 µM) and the MIC (pH 5.72, read-out: MIC (50% inhibition), C. albicans MRL 34389, pH 5.72, 24 hours) was 1 µg/mL (≈ 0.787 µM). For the same compound, the MIC (pH 5.72, read-out: MIC (50% inhibition), C. albicans MRL 34399, pH 5.72, 24 hours) was 1 µg/mL (≈ 0.787 µM), the MIC (pH 5.72, read-out: MIC (50% inhibition), C. albicans MRL 34408, pH 5.72, 24 hours) was 0.063 µg/mL (≈ 0.0496 µM) and the MIC (pH 5.72, read-out: MIC (50% inhibition), C. albicans MRL 34449, pH 5.72, 24 hours) was 0.25 µg/mL (≈ 0.197 µM). For the same compound, the MIC50 (pH 7) was 0.25 µg/mL (≈ 0.197 µM), the MIC90 (pH 7) was 0.25 µg/mL (≈ 0.197 µM) and the MIC (pH 7, read-out: MIC (50% inhibition), C. albicans MRL 34366, pH 7.0, 24 hours) was 0.25 µg/mL (≈ 0.197 µM). The MIC (pH 7, read-out: MIC (50% inhibition), C. albicans MRL 34367, pH 7.0, 24 hours) was 0.25 µg/mL (≈ 0.197 µM), the MIC (pH 7, read-out: MIC (50% inhibition), C. albicans MRL 34372, pH 7.0, 24 hours) was 0.25 µg/mL (≈ 0.197 µM) and the MIC (pH 7, read-out: MIC (50% inhibition), C. albicans MRL 34373, pH 7.0, 24 hours) was 0.25 µg/mL (≈ 0.197 µM). It also gave an MIC (pH 7, read-out: MIC (50% inhibition), C. albicans MRL 34374, pH 7.0, 24 hours) of 0.25 µg/mL (≈ 0.197 µM), an MIC (pH 7, read-out: MIC (50% inhibition), C. albicans MRL 34385, pH 7.0, 24 hours) of 0.25 µg/mL (≈ 0.197 µM) and an MIC (pH 7, read-out: MIC (50% inhibition), C. albicans MRL 34389, pH 7.0, 24 hours) of 0.25 µg/mL (≈ 0.197 µM). The MIC (pH 7, read-out: MIC (50% inhibition), C. albicans MRL 34399, pH 7.0, 24 hours) was 0.25 µg/mL (≈ 0.197 µM), the MIC (pH 7, read-out: MIC (50% inhibition), C. albicans MRL 34408, pH 7.0, 24 hours) was 0.25 µg/mL (≈ 0.197 µM) and the MIC (pH 7, read-out: MIC (50% inhibition), C. albicans MRL 34449, pH 7.0, 24 hours) was 0.25 µg/mL (≈ 0.197 µM).
